Test results from US20170247366A1, “SUBSTITUTED 4-ALKOXYPICOLINAMIDE ANALOGS AS MGLUR5 NEGATIVE ALLOSTERIC MODULATORS AND METHODS OF MAKING AND USING THE SAME” (VANDERBILT UNIVERSITY, priority 2014, published 2017).

These compounds were tested against T1, rat mGluR5 (Rattus norvegicus, UniProt P31424) (assay: mGluR5 calcium flux assay in HEK 293A cells, negative allosteric modulation of glutamate EC80 response). Details: HEK cells transfected with rat mGluR5; glutamate EC80; ± is standard error of at least three experiments.
T1 construct: expressed in transfected cells
T1 sequence (P31424 21-1203): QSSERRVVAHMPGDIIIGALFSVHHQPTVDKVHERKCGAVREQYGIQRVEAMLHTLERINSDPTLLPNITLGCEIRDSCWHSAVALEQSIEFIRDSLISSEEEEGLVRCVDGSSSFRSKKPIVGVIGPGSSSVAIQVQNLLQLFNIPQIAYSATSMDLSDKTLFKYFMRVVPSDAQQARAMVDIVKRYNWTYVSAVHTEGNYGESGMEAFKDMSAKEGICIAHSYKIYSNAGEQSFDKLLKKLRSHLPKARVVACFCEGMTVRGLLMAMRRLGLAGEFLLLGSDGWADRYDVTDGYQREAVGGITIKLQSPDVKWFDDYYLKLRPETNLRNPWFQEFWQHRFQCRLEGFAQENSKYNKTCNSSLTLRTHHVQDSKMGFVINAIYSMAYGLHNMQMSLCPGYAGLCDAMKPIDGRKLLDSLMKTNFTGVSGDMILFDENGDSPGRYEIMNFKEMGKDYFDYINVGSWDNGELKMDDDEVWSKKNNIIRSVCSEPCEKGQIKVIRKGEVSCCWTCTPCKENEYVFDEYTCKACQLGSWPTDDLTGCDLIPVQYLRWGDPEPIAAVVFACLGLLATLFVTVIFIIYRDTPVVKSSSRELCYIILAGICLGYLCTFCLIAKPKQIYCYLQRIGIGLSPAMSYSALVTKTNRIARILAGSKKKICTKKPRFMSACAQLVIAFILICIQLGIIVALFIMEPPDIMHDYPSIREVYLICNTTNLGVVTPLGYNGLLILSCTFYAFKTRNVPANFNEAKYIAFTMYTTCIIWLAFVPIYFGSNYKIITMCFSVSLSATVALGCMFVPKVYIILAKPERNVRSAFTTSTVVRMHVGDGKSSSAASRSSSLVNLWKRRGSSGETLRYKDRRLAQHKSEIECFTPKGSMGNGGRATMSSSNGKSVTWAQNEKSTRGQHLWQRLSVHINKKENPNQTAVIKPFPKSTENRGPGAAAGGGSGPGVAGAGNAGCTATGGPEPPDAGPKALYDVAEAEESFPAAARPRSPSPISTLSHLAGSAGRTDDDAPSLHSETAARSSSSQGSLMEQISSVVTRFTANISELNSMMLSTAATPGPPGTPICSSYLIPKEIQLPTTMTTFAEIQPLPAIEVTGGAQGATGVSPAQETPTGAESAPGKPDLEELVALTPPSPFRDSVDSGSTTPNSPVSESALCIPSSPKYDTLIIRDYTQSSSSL
Type: cell-based
Method: HEK 293A cells stably expressing either rat or human mGluR5 were plated in black-walled, clear-bottomed, poly-D-lysine coated 384-well plates in 20 μL of assay medium (DMEM containing 10% dialyzed FBS, 20 mM HEPES, 100 units/mL penicillin/streptomycin plus 250 ng/mL Fungizone, and 1 mM sodium pyruvate) at a density of 20K cells/well. The cells were grown overnight at 37° C. in the presence of 5% CO2. The next day, medium was removed and the cells incubated with 20 μL of 2.3 µM Fluo-4, AM prepared as a 2.3 mM stock in DMSO and mixed in a 1:1 ratio with 10% (w/v) pluronic acid F-127 and diluted in assay buffer (Hank's balanced salt solution, 20 mM HEPES, and 2.5 mM probenecid) for 45 minutes at 37° C. Dye was removed, 20 μL of assay buffer was added, and the plate was incubated for 5 minutes at room temperature.
Ca^2+ flux was measured using the Functional Drug Screening System (FDSS7000, Hamamatsu, Japan). After establishment of a fluorescence baseline for about 3 seconds, the compounds of the present invention were added to the cells, and the response in cells was measured. 2.3 minutes later an EC20 concentration of the mGluR5 receptor agonist glutamate was added to the cells, and the response of the cells was measured for 1.9 minutes; an EC80 concentration of agonist was added and readings taken for an additional 1.7 minutes. All test compounds were dissolved and diluted to a concentration of 10 mM in 100% DMSO. Compounds were then serially diluted 1:3 in DMSO into 10 point concentration response curves, transferred to daughter plates, and further diluted into assay buffer to a 2× stock. Calcium fluorescence measures were recorded as fold over basal fluorescence; raw data was then normalized to the maximal response to glutamate. Antagonism of the agonist response of the mGluR5 receptor in the present invention was observed as a decrease in response to nearly maximal concentrations of glutamate in the presence of compound compared to the response to glutamate in the absence of compound.
The raw data file containing all time points was used as the data source in the analysis template. This was saved by the FDSS as a tab-delimited text file. Data were normalized using a static ratio function (F/F0) for each measurement of the total 360 values per well divided by each well's initial value. Data were then reduced to peak amplitudes (Max−Initial Min) using a time range that starts approximately 3 seconds prior to the glutamate EC20/EC80 addition and continues for approximately 90-120 seconds. This is sufficient time to capture the peak amplitude of the cellular calcium response. Individual amplitudes were expressed as % EMax by multiplying each amplitude by 100 and then dividing the product by the mean of the amplitudes derived from the glutamate ECMax-treated wells. IC50 values for test compounds were generated by fitting the normalized values versus the log of the test compound concentration (in mol/L) using a 4 parameter logistic equation where none of the parameters were fixed. Each of the three values collected at each concentration of test compound were weighted evenly.
For NAMs with a CRC that plateaus above 10% Glu Max, the IC50 values are reported, the compound is designated a “partial NAM” and the % Glu Max is reported. […] Compounds without measurable activity are designated as “>30,000 nM” since the top concentration of compound tested in the assay is 30 µM. Exemplary data are provided in Tables 1 and 2 below.
Table 1 below lists specific compounds, experimentally determined molecular mass, and mGluR5 activity determined in a cell-based assay. The mGluR5 activity was determined using the metabotropic glutamate receptor activity assays in human embryonic kidney cells as described herein, wherein the human embryonic kidney cells were transfected with rat mGluR5. The mGluR5 activity data for some compounds are shown as the average of at least three experiments with the standard error in these cases. […]

IC50 [nM]	Structure (SMILES)
212 ± 8	Cc1cc(OC2COC2)cc(C(=O)Nc2ccc(F)cn2)n1
70 ± 10	Cc1cc(OC2COC2)cc(C(=O)Nc2nc(C)cs2)n1
646	Cc1cc(OCC2CCO2)cc(C(=O)Nc2ccccn2)n1 (stereo not drawn)
1570	COC(=O)N1CC(Oc2cc(C)nc(C(=O)Nc3ccc(F)cn3)c2)C1
153	Cc1cc(O[C@@H]2CCOC2)cc(C(=O)Nc2nc(C3CC3)cs2)n1
23	Cc1cc(O[C@@H]2CCOC2)cc(C(=O)Nc2ccccn2)n1
39	Cc1cc(OC2CCSC2)cc(C(=O)Nc2ccccn2)n1 (stereo not drawn)
902	Cc1cc(O[C@H]2CO[C@H](C)C2)cc(C(=O)Nc2nc(C(F)F)cs2)n1
3400	CCC(=O)N1CC(Oc2cc(C)nc(C(=O)Nc3ccc(F)cn3)c2)C1
3710	Cc1cc(OC2CC3(COC3)C2)cc(C(=O)Nc2ccc(F)cn2)n1
364	Cc1cc(OC[C@H]2CCOC2)cc(C(=O)Nc2nc(C)cs2)n1
247	Cc1cc(O[C@@H]2CCOC2)cc(C(=O)Nc2nc(C(F)F)cs2)n1
59 ± 7	Cc1cc(OC2CCC2)cc(C(=O)Nc2nc(C)cs2)n1
> 10000	CCCS(=O)(=O)N1CC(Oc2cc(C)nc(C(=O)Nc3ccc(F)cn3)c2)C1
506	COCCCOc1cc(C)nc(C(=O)Nc2nc(C)cs2)c1
4470 ± 260	Cc1cc(O[C@H]2CO[C@@H](C)C2)cc(C(=O)Nc2ccc(F)cn2)n1
2100	Cc1cc(OC2CCCCC2)cc(C(=O)Nc2nc(C)cs2)n1
392	Cc1cc(OCC2COC2)cc(C(=O)Nc2ccccn2)n1
725	Cc1cc(OCC2CCCO2)cc(C(=O)Nc2ccccn2)n1 (stereo not drawn)
194	CO[C@H](C)COc1cc(C)nc(C(=O)Nc2ccccn2)c1
31	Cc1cc(OC2CSC2)cc(C(=O)Nc2nc(C)cs2)n1

IC50 [nM]	Structure (SMILES)
433	Cc1cc(OC2CC3(COC3)C2)cc(C(=O)Nc2nc(C)cs2)n1
533	Cc1cc(OC2C[S+]([O-])C2)cc(C(=O)Nc2ccc(F)cn2)n1 (stereo not drawn)
180	Cc1cc(O[C@H]2CO[C@H](C)C2)cc(C(=O)Nc2nc(CF)cs2)n1
201	Cc1cc(OC2COC2)cc(C(=O)Nc2cccc(F)n2)n1
899	Cc1cc(O[C@H]2CO[C@H](C)C2)cc(C(=O)Nc2nc(C3CC3)cs2)n1
70 ± 11	Cc1cc(O[C@@H]2CCCOC2)cc(C(=O)Nc2nc(C)cs2)n1
3660	Cc1cc(OC2CCCC2)cc(C(=O)Nc2ccc(F)cn2)n1
1050	COc1cccc(NC(=O)c2cc(OC3COC3)cc(C)n2)n1
686	COC(=O)N1CC(Oc2cc(C)nc(C(=O)Nc3nc(C)cs3)c2)C1
151 ± 38	Cc1cc(OC[C@@H]2CCOC2)cc(C(=O)Nc2nc(C)cs2)n1
685 ± 51	Cc1cc(O[C@H]2CCOC2)cc(C(=O)Nc2ccc(F)cn2)n1
399	Cc1cc(OCC2CCO2)cc(C(=O)Nc2nc(C)cs2)n1 (stereo not drawn)
2040	Cc1cc(O[C@@H]2CCOC2)cc(C(=O)Nc2nc(C(F)(F)F)cs2)n1
1420	Cc1cc(OC2CCCCC2)cc(C(=O)Nc2ccccn2)n1
388	CC(=O)N1CC(Oc2cc(C)nc(C(=O)Nc3nc(C)cs3)c2)C1
> 30000	Cc1cc(OC2CN(C(=O)OCC(C)C)C2)cc(C(=O)Nc2ccc(F)cn2)n1
4100	Cc1cc(OC2CN(C(=O)OC(C)C)C2)cc(C(=O)Nc2ccc(F)cn2)n1
224	Cc1cc(OC2CCCOC2)cc(C(=O)Nc2ccccn2)n1 (stereo not drawn)
11200	CCCCOC(=O)N1CC(Oc2cc(C)nc(C(=O)Nc3ccc(F)cn3)c2)C1
264 ± 47	Cc1cc(O[C@H]2CCCOC2)cc(C(=O)Nc2ccc(F)cn2)n1
175 ± 21	Cc1cc(O[C@H]2CO[C@H](C)C2)cc(C(=O)Nc2ccc(F)cn2)n1

Same assay, conditions: rat mGluR5; CRC plateaus above 10% Glu Max

NAM designation	Structure (SMILES)
Partial NAM	Cc1cc(OC2CN(C(=O)OC(C)C)C2)cc(C(=O)Nc2ccc(F)cn2)n1

Same assay, conditions: rat mGluR5; average Glu Max at 30 μM; CRC does not hit a plateau

% Glu Max at single concentration [%]	Structure (SMILES)
53	CCCS(=O)(=O)N1CC(Oc2cc(C)nc(C(=O)Nc3ccc(F)cn3)c2)C1

Same assay, conditions: rat mGluR5; response in presence of compound as percentage of maximal glutamate response; CRC plateaus above 10%

% Glu Max (partial NAM, plateau of CRC) [%]	Structure (SMILES)
42	Cc1cc(OC2CN(C(=O)OC(C)C)C2)cc(C(=O)Nc2ccc(F)cn2)n1
